Results as given in PubChem BioAssay (NCI).
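In this assay, cells in 96-well plates receive the compound at five concentrations for 48 hours. Endpoints are linearly interpolated between the surrounding concentrations. TGI is the concentration that stops growth completely.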

Experiments:
Experiment in all cases: NCI-60 cell line screen, 48 h
786-0 renal = system: 786-0 renal
A498 renal = system: A498 renal
A549 NSCLC = system: A549 NSCLC
BT-549 breast = system: BT-549 breast
CAKI-1 renal = system: CAKI-1 renal
CCRF-CEM leukemia = system: CCRF-CEM leukemia
COLO 205 colon = system: COLO 205 colon
DU-145 prostate = system: DU-145 prostate
HCT-116 colon = system: HCT-116 colon
HCT-15 colon = system: HCT-15 colon
HL-60(TB) leukemia = system: HL-60(TB) leukemia
HOP-62 NSCLC = system: HOP-62 NSCLC
HOP-92 NSCLC = system: HOP-92 NSCLC
HS 578T breast = system: HS 578T breast
HT29 colon = system: HT29 colon
IGROV1 ovarian = system: IGROV1 ovarian
K-562 leukemia = system: K-562 leukemia
KM12 colon = system: KM12 colon
LOX IMVI melanoma = system: LOX IMVI melanoma
M14 melanoma = system: M14 melanoma
MALME-3M melanoma = system: MALME-3M melanoma
MCF7 breast = system: MCF7 breast
MDA-MB-231 breast = system: MDA-MB-231 breast
MDA-MB-435 = system: MDA-MB-435
MDA-N = system: MDA-N
MOLT-4 leukemia = system: MOLT-4 leukemia
NCI-H226 lung = system: NCI-H226 lung
NCI-H23 lung = system: NCI-H23 lung
NCI-H460 lung = system: NCI-H460 lung
NCI/ADR-RES ovarian = system: NCI/ADR-RES ovarian
OVCAR-3 ovarian = system: OVCAR-3 ovarian
OVCAR-4 ovarian = system: OVCAR-4 ovarian
OVCAR-8 ovarian = system: OVCAR-8 ovarian
PC-3 prostate = system: PC-3 prostate
RPMI-8226 leukemia = system: RPMI-8226 leukemia
RXF 393 renal = system: RXF 393 renal
SF-268 CNS = system: SF-268 CNS
SF-295 CNS = system: SF-295 CNS
SF-539 CNS = system: SF-539 CNS
SK-MEL-2 melanoma = system: SK-MEL-2 melanoma
SK-MEL-28 melanoma = system: SK-MEL-28 melanoma
SK-MEL-5 melanoma = system: SK-MEL-5 melanoma
SK-OV-3 ovarian = system: SK-OV-3 ovarian
SN12C renal = system: SN12C renal
SNB-19 CNS = system: SNB-19 CNS
SNB-75 CNS = system: SNB-75 CNS
SR leukemia = system: SR leukemia
SW-620 colon = system: SW-620 colon
T-47D breast = system: T-47D breast
TK-10 renal = system: TK-10 renal
U251 CNS = system: U251 CNS
UACC-257 melanoma = system: UACC-257 melanoma
UACC-62 melanoma = system: UACC-62 melanoma
UO-31 renal = system: UO-31 renal
ACHN renal = system: ACHN renal
EKVX NSCLC = system: EKVX NSCLC
HCC-2998 colon = system: HCC-2998 colon
NCI-H522 lung = system: NCI-H522 lung
OVCAR-5 ovarian = system: OVCAR-5 ovarian

For `CCOC(=O)C1(C(=O)OCC)Nc2cccnc2N(C)N1`, the TGI (786-0 renal) was 36 µM, the TGI (A498 renal) was 52.4 µM and the TGI (A549 NSCLC) was greater than 100 µM. It also gave a TGI (BT-549 breast) greater than 100 µM, a TGI (CAKI-1 renal) of 36.1 µM and a TGI (CCRF-CEM leukemia) of 44.6 µM. It also gave a TGI (COLO 205 colon) of 24.2 µM, a TGI (DU-145 prostate) of 42.5 µM and a TGI (HCT-116 colon) of 73.9 µM. It also gave a TGI (HCT-15 colon) of 36.2 µM, a TGI (HL-60(TB) leukemia) of 58 µM and a TGI (HOP-62 NSCLC) greater than 100 µM. For the same compound, the TGI (HOP-92 NSCLC) was 29.7 µM, the TGI (HS 578T breast) was greater than 100 µM and the TGI (HT29 colon) was 32.2 µM. It also gave a TGI (IGROV1 ovarian) of 42.1 µM, a TGI (K-562 leukemia) of 49.9 µM and a TGI (KM12 colon) greater than 100 µM. The TGI (LOX IMVI melanoma) was 52.6 µM, the TGI (M14 melanoma) was 39.1 µM and the TGI (MALME-3M melanoma) was greater than 100 µM. It also gave a TGI (MCF7 breast) of 34.8 µM, a TGI (MDA-MB-231 breast) of 40.4 µM and a TGI (MDA-MB-435) of 36 µM. It also gave a TGI (MDA-N) of 35.4 µM, a TGI (MOLT-4 leukemia) of 55.3 µM and a TGI (NCI-H226 lung) of 35.3 µM. The TGI (NCI-H23 lung) was 42.1 µM, the TGI (NCI-H460 lung) was greater than 100 µM and the TGI (NCI/ADR-RES ovarian) was 43.8 µM. For the same compound, the TGI (OVCAR-3 ovarian) was 41.5 µM, the TGI (OVCAR-4 ovarian) was 34.3 µM and the TGI (OVCAR-8 ovarian) was 40 µM. For the same compound, the TGI (PC-3 prostate) was 67.5 µM, the TGI (RPMI-8226 leukemia) was 40.8 µM and the TGI (RXF 393 renal) was 33.3 µM. The TGI (SF-268 CNS) was greater than 100 µM, the TGI (SF-295 CNS) was greater than 100 µM and the TGI (SF-539 CNS) was 30.7 µM. The TGI (SK-MEL-2 melanoma) was 37 µM, the TGI (SK-MEL-28 melanoma) was 93.8 µM and the TGI (SK-MEL-5 melanoma) was 34.2 µM. The TGI (SK-OV-3 ovarian) was greater than 100 µM, the TGI (SN12C renal) was 36 µM and the TGI (SNB-19 CNS) was greater than 100 µM. It also gave a TGI (SNB-75 CNS) greater than 100 µM, a TGI (SR leukemia) greater than 100 µM and a TGI (SW-620 colon) of 69 µM. For the same compound, the TGI (T-47D breast) was 53.5 µM, the TGI (TK-10 renal) was 40.1 µM and the TGI (U251 CNS) was 41.4 µM. The TGI (UACC-257 melanoma) was 32.3 µM, the TGI (UACC-62 melanoma) was 35.2 µM and the TGI (UO-31 renal) was 31.8 µM.
`CCNCCNc1c2ccccc2nc2ccccc12` showed a TGI (786-0 renal) of 13.4 µM, a TGI (A549 NSCLC) of 4.95 µM and a TGI (ACHN renal) of 1.37 µM. For the same compound, the TGI (BT-549 breast) was 10.2 µM, the TGI (CAKI-1 renal) was 3.48 µM and the TGI (CCRF-CEM leukemia) was 8.63 µM. The TGI (COLO 205 colon) was 3.42 µM, the TGI (DU-145 prostate) was 7.42 µM and the TGI (EKVX NSCLC) was 21.9 µM. For the same compound, the TGI (HCC-2998 colon) was 1.09 µM, the TGI (HCT-116 colon) was 7.99 µM and the TGI (HCT-15 colon) was 5.83 µM. For the same compound, the TGI (HL-60(TB) leukemia) was greater than 100 µM, the TGI (HOP-62 NSCLC) was 4.21 µM and the TGI (HS 578T breast) was 5.28 µM. The TGI (HT29 colon) was greater than 100 µM, the TGI (IGROV1 ovarian) was 9.82 µM and the TGI (K-562 leukemia) was 5.66 µM. It also gave a TGI (KM12 colon) of 4.79 µM, a TGI (LOX IMVI melanoma) of 2.95 µM and a TGI (M14 melanoma) of 3.05 µM. For the same compound, the TGI (MALME-3M melanoma) was 4.6 µM, the TGI (MCF7 breast) was 3.4 µM and the TGI (MDA-MB-231 breast) was 3.02 µM. For the same compound, the TGI (MDA-MB-435) was 2.59 µM, the TGI (MDA-N) was 2.81 µM and the TGI (MOLT-4 leukemia) was greater than 100 µM. For the same compound, the TGI (NCI-H23 lung) was 3.36 µM, the TGI (NCI-H460 lung) was 1.54 µM and the TGI (NCI-H522 lung) was 4.69 µM. For the same compound, the TGI (NCI/ADR-RES ovarian) was 19.5 µM, the TGI (OVCAR-3 ovarian) was 24.5 µM and the TGI (OVCAR-4 ovarian) was 11.1 µM. For the same compound, the TGI (OVCAR-5 ovarian) was 7.62 µM, the TGI (OVCAR-8 ovarian) was 7.06 µM and the TGI (PC-3 prostate) was 3.95 µM. It also gave a TGI (RXF 393 renal) of 3.31 µM, a TGI (SF-268 CNS) of 5.52 µM and a TGI (SF-295 CNS) of 3.3 µM. The TGI (SF-539 CNS) was 2.21 µM, the TGI (SK-MEL-2 melanoma) was 3.63 µM and the TGI (SK-MEL-5 melanoma) was 7.41 µM. The TGI (SK-OV-3 ovarian) was 12.2 µM, the TGI (SN12C renal) was 4.91 µM and the TGI (SNB-19 CNS) was 4.69 µM. It also gave a TGI (SNB-75 CNS) of 3.52 µM, a TGI (SR leukemia) of 4.18 µM and a TGI (SW-620 colon) of 2.84 µM. It also gave a TGI (T-47D breast) of 8.41 µM, a TGI (TK-10 renal) of 23.3 µM and a TGI (UACC-257 melanoma) of 3.46 µM. It also gave a TGI (UACC-62 melanoma) of 3.26 µM and a TGI (UO-31 renal) of 5.02 µM.
